Two compounds from patent US9874558B2, “Immunoassay method less affected by impurities” (Konica Minolta, Inc., priority 2012, dated 2018) can be followed below.

A word on the Kd: it is the concentration at which binding is half-saturated.

Structures are written as SMILES.

For assay [1], the target named is T1, Lens culinaris lectin (LCA) (Lens culinaris, UniProt P02870).
T1 sequence (P02870 31-211 limits assumed): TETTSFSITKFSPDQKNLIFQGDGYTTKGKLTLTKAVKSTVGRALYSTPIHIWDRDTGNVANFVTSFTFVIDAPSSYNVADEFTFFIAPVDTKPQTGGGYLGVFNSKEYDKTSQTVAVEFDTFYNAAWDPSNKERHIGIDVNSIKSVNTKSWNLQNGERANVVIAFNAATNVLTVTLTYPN
T1 sequence (P02870 218-269 limits assumed): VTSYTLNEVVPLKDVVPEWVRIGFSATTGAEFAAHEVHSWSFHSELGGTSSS
As to the kind of experiment: SPFS sandwich immunoassay of AFP with labeled LCA, added competing sugar chain compound, S/N ratio. The settings on record: AFP 3.0 ng/mL in commercially available serum, sugar chain compound 0.1% by weight in PBS for 10 minutes, none: S/N 2.

Assay [2] concerns the target T1, Lens culinaris lectin (LCA). As to the kind of experiment: Dissociation constant (Kd) with labeled LCA lectin. It is filed as binding. The settings on record: between sugar chain compound to be added and labeled lectin LCA; target compound AFP; read-out: Dissociation constant (Kd) x. An excerpt: In the present invention, the dissociation constant is defined as follows.
The binding between a sugar chain compound (A) and a lectin (B) occurs through a reversible reaction, and the following formula is established in an equilibrium state (wherein, [A] represents the concentration of the sugar chain compound (mol/L); [B] represents the concentration of the lectin (mol/L); and [A−B] represents the concentration of conjugates formed between the sugar chain compound and the lectin (mol/L)). [A−B]⇄[A]+[B]
In this case, the dissociation constant, Kd, between the sugar chain compound (A) and the lectin (B) is represented by the following equation: Kd=[A]×[B]/[A−B]

The target of assay [3] is T2, Wisteria floribunda lectin (WFA) (Wisteria floribunda, UniProt A0A218PFP3).
T2 sequence (A0A218PFP3 31-273): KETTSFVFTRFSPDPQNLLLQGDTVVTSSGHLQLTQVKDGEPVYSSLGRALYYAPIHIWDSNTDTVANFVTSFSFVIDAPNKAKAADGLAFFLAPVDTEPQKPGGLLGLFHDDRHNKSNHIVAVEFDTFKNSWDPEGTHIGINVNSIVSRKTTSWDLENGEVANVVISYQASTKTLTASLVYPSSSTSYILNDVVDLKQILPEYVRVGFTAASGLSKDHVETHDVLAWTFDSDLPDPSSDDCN
As to the kind of experiment: SPFS sandwich immunoassay of PSA with labeled WFA, added competing sugar chain compound, S/N ratio. The settings on record: PSA in commercially available serum, sugar chain compound 0.1% by weight in PBS for 10 minutes, none: S/N 2. The procedure: Antigen Addition Step: To one of the thus prepared sensor chip, 0.5 mL of a solution having a PSA concentration of 1.0 ng/mL, which was prepared by diluting the LNCaP culture supernatant with a commercially available serum (manufactured by Kohjin Bio Co., Ltd.), was added and circulated for 25 minutes in place of PBS. To the other sensor chip, a commercially available serum (manufactured by Kohjin Bio Co., Ltd.) containing no LNCaP culture supernatant was added and circulated for 25 minutes.
Washing Step: Each sensor chip was washed by circulating TBS containing 0.05% by weight of Tween 20 as a transfer liquid. Here, using a laser light source, the metal thin films of the sensor chip were irradiated with laser light having a wavelength of 635 nm, whose photon amount was adjusted by an optical filter (manufactured by Sigmakoki Co., Ltd.), through a prism (“S-LAL 10” manufactured by Ohara Inc. (refractive index [n]=1.72)), and the blank fluorescence was detected using a CCD image sensor (manufactured by Texas Instruments Inc.) equipped with a cut filter for cutting light having wavelengths of non-fluorescent components and an objective lens (×20). […]
Further, also for each of the following cases, the same experiment as described above was carried out and the S/N ratio was determined: […]

For `CC(C)CCCC(C)C1CCC2C3CC=C4CC(OC(=O)NCCOC5OC(CO)[C@H](O)C(O)[C@@H]5O)CC[C@]4(C)C3CC[C@]12C` (stereo partly drawn) [Man-2-Chol], in assay [1], the S/N is listed as 3. Besides, the equilibrium dissociation constant (Kd) in assay [2] was determined as 220 µM.

Regarding `CC(C)CCCC(C)C1CCC2C3CC=C4CC(OC(=O)NCCOC5OC(C)[C@@H](O)C(O)[C@H]5O)CC[C@]4(C)C3CC[C@]12C` (stereo partly drawn) [Fuc-2-Chol], the S/N in assay [3] is reported as 3.
